This is an account of results in ChEMBL document CHEMBL1157901, “Discovery of a tetrahydropyrimidin-2(1H)-one derivative (TAK-442) as a potent, selective, and orally active factor Xa inhibitor” (J Med Chem, 2010).

Molecules are shown by their SMILES.

For orientation: logD means the decadic logarithm of the distribution of all forms, ionised or not, between an organic phase and buffer at a given pH.

One series is described as follows: Metabolic stability in human liver microsomes assessed as compound remaining after 120 mins by HPLC. The class given is ADME, Microsome. The settings on record: read-out: Activity. (In general: Liver microsomes are a subcellular fraction often used to study metabolism.)
Consider `Cc1ncc2n1C(=O)N(C1CCN(C(=O)CCS(=O)(=O)c3ccc4cc(Cl)ccc4c3)CC1)C2`, for which the remaining at 2 h came out at 70.5%.

The nature of another series: Octanol-water partition coefficient, log D at pH 7.4.
Settings: not given
The series is classed as physicochemical.
`O=C([C@H](O)CS(=O)(=O)c1ccc2cc(Cl)ccc2c1)N1CCC(N2NCCCC2=O)CC1` displayed a logD of 1.85.

`O=C([C@H](O)CS(=O)(=O)c1ccc2cc(Cl)ccc2c1)N1CCC(N2CCOC2=O)CC1`: the logD stood at 1.75.

Regarding `O=C([C@H](O)CS(=O)(=O)c1ccc2cc(Cl)ccc2c1)N1CCC(N2CCCS2(=O)=O)CC1`, the logD came out at 1.69.

Take `O=C([C@H](O)CS(=O)(=O)c1ccc2cc(Cl)ccc2c1)N1CCC(N2C[C@H]3CCCN3C2=O)CC1`: the pH-dependent lipophilicity (logD) came out at 2.16.

In turn, `O=C([C@H](O)CS(=O)(=O)c1ccc2cc(Cl)ccc2c1)N1CCC(N2Cc3ccccc3C2=O)CC1` showed a logD of 2.58.

As to `O=C([C@H](O)CS(=O)(=O)c1ccc2cc(Cl)ccc2c1)N1CCC(N2CCCC2)CC1`, the log distribution coefficient (logD) stood at 1.56.

Take `O=C([C@H](O)CS(=O)(=O)c1ccc2cc(Cl)ccc2c1)N1CCC(N2CCCNC2=O)CC1` [LETAXABAN]: the pH-dependent lipophilicity (logD) worked out at 1.81.

With `O=C([C@H](O)CS(=O)(=O)c1ccc2cc(Cl)ccc2c1)N1CCC(N2CCCC2=O)CC1`, the logD came out at 1.96.

The molecule `O=C([C@H](O)CS(=O)(=O)c1ccc2cc(Cl)ccc2c1)N1CCC(N2CCOCC2=O)CC1` returned a logD of 1.85.

The molecule `Cc1ncc2n1C(=O)N(C1CCN(C(=O)[C@H](O)CS(=O)(=O)c3ccc4cc(Cl)ccc4c3)CC1)C2` showed a logD of 2.13.

In the case of `O=C([C@H](O)CS(=O)(=O)c1ccc2cc(Cl)ccc2c1)N1CCC(N2CCCCCC2=O)CC1`, the logD turned out to be 2.52.

In the case of `O=C([C@H](O)CS(=O)(=O)c1ccc2cc(Cl)ccc2c1)N1CCC(N2CCNC2=O)CC1`, the logD is 1.73.

Turning to `O=C([C@H](O)CS(=O)(=O)c1ccc2cc(Cl)ccc2c1)N1CCC(N2CCCOC2=O)CC1`, the logD turned out to be 1.67.

For the molecule `O=C([C@H](O)CS(=O)(=O)c1ccc2cc(Cl)ccc2c1)N1CCC(n2cc[nH]c2=O)CC1`, the pH-dependent lipophilicity (logD) was determined as 1.79.

Take `O=C([C@H](O)CS(=O)(=O)c1ccc2cc(Cl)ccc2c1)N1CCC(N2CCCCC2=O)CC1`: the log distribution coefficient (logD) was determined as 2.19.

Turning to `O=C([C@H](O)CS(=O)(=O)c1ccc2cc(Cl)ccc2c1)N1CCC(N2C[C@@H]3CCCN3C2=O)CC1`, the logD is 2.16.

In the case of `O=C([C@H](O)CS(=O)(=O)c1ccc2cc(Cl)ccc2c1)N1CCC(N2Cc3cccn3C2=O)CC1`, the logD amounted to 2.6.

The nature of another series: Metabolic stability in monkey liver microsomes assessed as compound remaining after 120 mins by HPLC. The series is classed as ADME, Macaca mulatta, Microsome. The settings on record: rhesus monkey, read-out: Activity.
Take `Cc1ncc2n1C(=O)N(C1CCN(C(=O)CCS(=O)(=O)c3ccc4cc(Cl)ccc4c3)CC1)C2`: the remaining at 2 h is 99.9%.
